Laboratory results as given in patent US20220146526A1, “METHOD FOR EVALUATING SAMPLE, ANALYSIS METHOD, METHOD FOR DETECTING DEGRADED SAMPLE, MARKER FOR DETECTING DEGRADED BLOOD PLASMA SAMPLE, AND MARKER FOR DETECTING DEGRADED SERUM SAMPLE” (SHIMADZU CORPORATION, priority 2019, published 2022).
Values belong to the compound of their own block, whether it stands above or below them.

How the values were obtained:
Format in all cases: physicochemical, human
[1] = LC/MS of blood plasma sample: time from blood collection to centrifugation (Table D); conditions: for Increase or decrease: detection intensity; for Increase or decrease / Rate of increase or decrease: blood collection to centrifugation; for Rate of increase or decrease (second value, decrease) / Rate of increase or decrease (first value, increase): different from individual to individual, relative to 1 at 15 minutes, collection to centrifugation; for Rate of increase or decrease (second value, decrease): individuals with decrease; for Rate of increase or decrease (first value, increase): individuals with increase; for Rate of increase or decrease: detection intensity relative to 1 at 15 minutes
In short: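 Healthy-subject blood (5 mL, EDTA) cooled and held at 4 °C before centrifugation (4 °C, 3000 rpm, 15 min), with plasma then frozen. LC/MS on Discovery HS F5-3 column at 40 °C, 0.1% formic acid water/acetonitrile, 0.25 mL/min, electrospray, MRM; intensities relative to 15 min collection-to-centrifugation set as 1.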

[2] = LC/MS of serum sample: number of times of freezing and thawing (Table M); parameters: key to Rate of increase or decrease: detection intensity relative to 1 at 2 freeze-thaw cycles; conditions: for Rate of increase or decrease: detection intensity relative to 1 at 2 times; for Number of times when compound is affected / Increase or decrease: serum sample, LC/MS; for Number of times when compound is affected: detection intensity changed by 30% or more vs 2 times of freezing and thawing; for Increase or decrease: detection intensity vs 2 times of freezing and thawing
In short: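 Serum was isolated at room temperature after centrifugation at room temperature, 3500 rpm, 5 minutes, then frozen and freeze-thawed 2, 4, 6 or 10 times. LC/MS used a Discovery HS F5-3 column at 40° C with formic acid water/acetonitrile, electrospray MRM. Intensity is relative to 2 freeze-thaw cycles.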

[3] = LC/MS of blood plasma sample: time from blood collection to cooling of blood (Table E); parameters: key to Rate of increase or decrease / Rate of increase or decrease (first value, increase): detection intensity relative to ≤1 min to cooling = 1; conditions: for Rate of increase or decrease: detection intensity relative to 1 at 1 minute or less, blood collection to cooling 5 minutes; for Increase or decrease: detection intensity, blood collection to cooling 5 minutes or more vs 1 minute or less
Protocol: At room temperature, 5 mL of blood from a healthy subject was taken into a blood-collecting vessel containing EDTA, and the blood-collecting vessel was inverted for mixing, then cooled, and allowed to stand at 4° C. Here, in order to investigate how the detection intensity of molecules contained in the sample was affected in a case where the time to cooling was set to 5 minutes or more as compared to that in a case where the time to cooling was set to 1 minute or less, preparations were performed under both the former condition and the latter condition. After standing, the blood sample was subjected to centrifugation under a condition of 4° C., 3000 rpm, and 15 minutes. […] After centrifugation, the blood-collecting vessel was left to stand at room temperature for 30 minutes, and the blood plasma was isolated during this 30 minutes. The obtained blood plasma sample was frozen and stored. Here, in order to investigate how the detection intensity of molecules contained in the sample was affected in cases where freezing and thawing was performed 4 times, 6 times, and 10 times after freezing as compared to that in a case where freezing and thawing was performed 2 times after freezing, freezing and thawing was performed under the respective conditions of 2, 4, 6, and 10 times.
(§1) Frozen blood plasma samples and serum samples were subjected to GC/MS or LC/MS. In GC/MS, the blood plasma samples and serum samples were subjected to methoxymation and trimethylsilylation and then introduced to GC-MS.
(§2) Analysis column: Discovery HS F5-3 (inner diameter of 2.1 mm, length of 150 mm, film thickness of 3 μm) (Sigma-Aldrich)
(§3) Column temperature: 40° C.
(§4) (A) 0.1% formic acid (dissolved in water)
(§5) (B) 0.1% formic acid (dissolved in acetonitrile)
(§6) Flow velocity: 0.25 mL/min
(§7) Ionization method: electrospray
(§8) Temperature: • Desolvation Line (DL) temperature: 250° C. • Heat block temperature: 400° C. • Interface temperature: 300° C.
(§9) Gas flow rate: • Nebulizer gas flow rate: 3.0 L/min • Drying gas flow rate: 10.0 L/min • Heating gas flow rate: 10.0 L/min
(§10) Mode: multiple reaction monitoring (MRM)
The rate of increase or decrease in Table E is the value of detection intensity relative to 1 that is the detection intensity in a case where the time from blood collection to cooling is set to 1 minute or less.

[4] = LC/MS of blood plasma sample: number of times of freezing and thawing (Table F); conditions: for Rate of increase or decrease: detection intensity relative to 1 at 2 times; for Increase or decrease: detection intensity
In short: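 Human blood from a healthy subject drawn into EDTA tubes, cooled to 4° C within 1 min or after ≥5 min, centrifuged at 4° C, 3000 rpm, 15 min. Plasma frozen, then freeze-thawed 2, 4, 6 or 10 times and analysed by LC/MS (ESI, MRM). Intensities expressed relative to 2 freeze-thaw cycles set as 1.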

[5] = GC/MS of serum sample: number of times of freezing and thawing (Table I); conditions: serum, GC/MS
In short: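 Serum was isolated after centrifugation at room temperature (3500 rpm, 5 min), frozen, and put through 2, 4, 6 or 10 freeze–thaw cycles. Samples were methoxymated and trimethylsilylated, then run by electron-ionization GC/MS in MRM mode on a BPX5 column (60 to 330 °C). Detection intensity is given relative to the 2-cycle sample, set as 1.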

[6] = GC/MS of serum sample: time from blood collection to centrifugation (Table G); conditions: blood collection to centrifugation
In short: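 Blood was held for varying times before centrifugation (room temperature, 3500 rpm, 5 min); serum was frozen, then methoxymated and trimethylsilylated for GC/MS with electron ionization in MRM mode. Values are detection intensities relative to the 15-minute collection-to-centrifugation condition, set as 1.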

[7] = LC/MS of serum sample: time from blood collection to centrifugation (Table J); conditions: for Rate of increase or decrease: detection intensity relative to 1 at 15 minutes; for Increase or decrease / Time when compound is affected: serum sample, LC/MS; for Increase or decrease: detection intensity vs 15 minutes from blood collection to centrifugation; for Time when compound is affected: time from blood collection to centrifugation, detection intensity changed by 30% or more vs 15 minutes
In short: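 Serum from blood centrifuged at room temperature, 3500 rpm, 5 min, then frozen; analysed by LC/MS on a Discovery HS F5-3 column at 40 °C. Mobile phase: 0.1% formic acid in water/acetonitrile, 0.25 mL/min, electrospray MRM. Values are intensity relative to a 15 min collection-to-centrifugation time.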

[8] = GC/MS of serum sample: time from centrifugation to isolation (Table H)
In short: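 Blood was centrifuged at room temperature, 3500 rpm, 5 min, and the vessel left at room temperature for 30 min, 1 h or 6 h before serum isolation. Serum was methoxymated, trimethylsilylated and analysed by GC/MS with electron ionization in MRM mode; intensities expressed relative to the 30-min condition (=1).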

[9] = GC/MS of blood plasma sample: time from blood collection to centrifugation (Table A); conditions: blood collection to centrifugation
In short: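 EDTA blood from a healthy subject was cooled at 4° C, centrifuged at 4° C, 3000 rpm, 15 minutes, and plasma was frozen. After methoxymation and trimethylsilylation, samples ran on GC/MS (BPX5 column, 60-330° C gradient, electron ionization, MRM). Intensity is relative to 15 minutes from collection to centrifugation.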

[10] = LC/MS of serum sample: time from centrifugation to isolation (Table K); parameters: key to Rate of increase or decrease: detection intensity relative to the 30-minute value set as 1
Protocol: After standing, the blood sample was subjected to centrifugation under a condition of room temperature, 3500 rpm, and 5 minutes. […] After centrifugation, the blood-collecting vessel was left to stand at room temperature, and the serum was isolated during this time. Here, in order to investigate how the detection intensity of molecules contained in the sample was affected in cases where the time during which the blood-collecting vessel was left at room temperature was set to 1 hour and 6 hours as compared to that in a case where the time was set to 30 minutes, preparations were performed under the respective conditions of 30 minutes, 1 hour, and 6 hours. The obtained serum sample was frozen and stored. Here, in order to investigate how the detection intensity of molecules contained in the sample was affected in cases where freezing and thawing was performed 4 times, 6 times, and 10 times after freezing as compared to that in a case where freezing and thawing was performed 2 times after freezing, freezing and thawing was performed under the respective conditions of 2, 4, 6, and 10 times.
as §1, §2, §3, §4, §5, §6, §7, §8, §9, §10
The rate of increase or decrease in Table K is the value of detection intensity relative to 1 that is the detection intensity in a case where the time from centrifugation to isolation is set to 30 minutes.

[11] = freezing and thawing 4 times vs 2 times

- Increase or decrease ([1]; after 12 hours vs 15 minutes): Different from individual
- Rate of increase or decrease (second value, decrease) ([1]; after 12 hours): 0.66
- Rate of increase or decrease (first value, increase) ([1]; after 12 hours): 1.78
- Rate of increase or decrease ([2]; 6 times of freezing and thawing): 0.69
- Number of times when compound is affected [2]: 6 times
- Increase or decrease [2]: Decrease
- Rate of increase or decrease [3]: 1.31
- Increase or decrease [3]: Increase
Structure (SMILES): CN(C)C(N)=NCCC[C@H](N)C(=O)O [Asymmetric dimethylarginine]

- Rate of increase or decrease ([1]; after 4 hours): 1.89
- Increase or decrease ([1]; after 4 hours vs 15 minutes): Increase
- Rate of increase or decrease ([4]; freezing and thawing 6 times): 1.95
- Increase or decrease ([4]; freezing and thawing 6 times vs 2 times): Increase
- Increase or decrease [3]: Different from individual
- Rate of increase or decrease (second value, decrease) ([3]; different from individual to individual, individuals with decrease, relative to 1 at 1 minute or less, collection to cooling 5 minutes): 0.59
- Rate of increase or decrease (first value, increase) ([3]; different from individual to individual, individuals with increase, relative to 1 at 1 minute or less, collection to cooling 5 minutes): 1.47
Structure (SMILES): Nc1nc2c(ncn2[C@@H]2O[C@H](COP(=O)(O)O)[C@@H](O)[C@H]2O)c(=O)[nH]1 [Guanosine monophosphate]

- Rate of increase or decrease ([1]; after 4 hours): 1.75
- Increase or decrease ([1]; after 4 hours vs 15 minutes): Increase
- Rate of increase or decrease ([4]; freezing and thawing 4 times): 1.98
- Increase or decrease [4, 11]: Increase
- Rate of increase or decrease [3]: 1.34
- Increase or decrease [3]: Increase
Structure (SMILES): Nc1ccn([C@@H]2O[C@H](COP(=O)(O)O)[C@@H](O)[C@H]2O)c(=O)n1 [Cytidine monophosphate]

- Rate of increase or decrease ([1]; after 6 hours): 0.53
- Increase or decrease ([1]; after 6 hours vs 15 minutes): Decrease
- Rate of increase or decrease ([5]; detection intensity relative to 1 at 2 times, freezing and thawing 4 times): 0.53
- Increase or decrease ([5]; detection intensity, freezing and thawing 4 times vs 2 times): Decrease
- Rate of increase or decrease ([6]; detection intensity relative to 1 at 15 minutes, after 4 hours): 1.50
- Increase or decrease ([6]; detection intensity, after 4 hours vs 15 minutes): Increase
- Rate of increase or decrease [3]: 1.43
- Increase or decrease [3]: Increase
- Rate of increase or decrease ([7]; after 12 hours from blood collection to centrifugation): 1.39
- Increase or decrease [7]: Increase
- Time when compound is affected [7]: After 12 hours
- Rate of increase or decrease ([8]; detection intensity relative to 1 at 30 minutes, after 1 hour): 0.64
- Increase or decrease ([8]; detection intensity, after 1 hour vs 30 minutes): Decrease
Structure (SMILES): NCCc1ccc(O)c(O)c1 [Dopamine]

- Increase or decrease ([1]; after 4 hours vs 15 minutes): Different from individual
- Rate of increase or decrease (second value, decrease) ([1]; after 4 hours): 0.70
- Rate of increase or decrease (first value, increase) ([1]; after 4 hours): 1.79
- Increase or decrease [4, 11]: Increase
- Rate of increase or decrease [3]: 1.33
- Increase or decrease [3]: Increase
Structure (SMILES): N[C@@H](CCC(=O)N[C@@H](CS)C(=O)O)C(=O)O [5-Glutamylcysteine]

- Rate of increase or decrease ([1]; after 6 hours): 0.70
- Increase or decrease ([1]; after 6 hours vs 15 minutes): Decrease
- Rate of increase or decrease ([4]; freezing and thawing 4 times): 1.76
- Increase or decrease [4, 11]: Increase
- Rate of increase or decrease [3]: 1.50
- Increase or decrease [3]: Increase
Structure (SMILES): NCCCC(=O)O [4-Aminobutyric acid]

- Rate of increase or decrease ([1]; after 6 hours): 0.62
- Increase or decrease ([1]; after 6 hours vs 15 minutes): Decrease
- Rate of increase or decrease ([4]; freezing and thawing 4 times): 1.33
- Increase or decrease [4, 11]: Increase
- Rate of increase or decrease [3]: 1.60
- Increase or decrease [3]: Increase
Structure (SMILES): C[S+](CC[C@H](N)C(=O)[O-])C[C@H]1O[C@@H](n2cnc3c(N)ncnc32)[C@H](O)[C@@H]1O (stereo partly shown) [S-adenosylmethionine]

- Rate of increase or decrease ([1]; after 6 hours): 0.58
- Increase or decrease ([1]; after 6 hours vs 15 minutes): Decrease
- Rate of increase or decrease ([2]; 10 times of freezing and thawing): 0.64
- Number of times when compound is affected [2]: 10 times
- Increase or decrease [2]: Decrease
- Rate of increase or decrease ([9]; detection intensity relative to 1 at 15 minutes, after 12 hours): 1.36
- Increase or decrease ([9]; detection intensity, after 12 hours vs 15 minutes): Increase
- Rate of increase or decrease ([4]; freezing and thawing 4 times): 2.37
- Increase or decrease [4, 11]: Increase
- Rate of increase or decrease ([10]; after 1 hour from centrifugation to isolation, detection intensity relative to 1 at 30 minutes): 1.38
- Increase or decrease ([10]; serum sample, LC/MS, detection intensity vs 30 minutes from centrifugation to isolation): Increase
- Time when compound is affected ([10]; serum sample, LC/MS, time from centrifugation to isolation, detection intensity changed by 30% or more vs 30 minutes): After 1 hour hours
- Rate of increase or decrease ([7]; after 4 hours from blood collection to centrifugation): 1.33
- Increase or decrease [7]: Increase
- Time when compound is affected [7]: After 4 hours
Structure (SMILES): O=C(O)CC(O)C(=O)O (stereo not shown) [Malic acid]
